Values joined by “and” are separate entries in the source; they are usually repeats but may differ in a detail not shown here. Equal values may be shown once.
Legend:
[1] = LogD pH 7.4, octanol/phosphate buffer; details: octanol/phosphate buffer, pH 7.4
[2] = CLint in NADPH-supplemented human liver microsomes; details: human
Protocol: (§1) Calculation and scaling of CLint,u was done using the equation below and 45 mg of microsomal protein per gram of liver. HLMCLint,u=ln2/x1/t1/2(min)xmLincubation/mgmicrosomalproteinx45mgmicrosomalprotein/gliverx21gliver/kg/Fuinc

[3] = Free fraction in HLM incubation, equilibrium dialysis; format: in vitro ADME, human
in vitro = details: human, hepatocytes
recombinant CYP3A4-POR = molecular target: T1, recombinant CYP3A4-POR (Homo sapiens, UniProt P08684); experiment: Savolitinib incubation with recombinant CYP3A4-POR Supersomes; format: in vitro ADME; details: CYP3A4-POR 100 pmol/mL, 1 µM, 1 h (Fig. 2b)
T1 construct: purchased 456202
T1 sequence (P08684 whole entry): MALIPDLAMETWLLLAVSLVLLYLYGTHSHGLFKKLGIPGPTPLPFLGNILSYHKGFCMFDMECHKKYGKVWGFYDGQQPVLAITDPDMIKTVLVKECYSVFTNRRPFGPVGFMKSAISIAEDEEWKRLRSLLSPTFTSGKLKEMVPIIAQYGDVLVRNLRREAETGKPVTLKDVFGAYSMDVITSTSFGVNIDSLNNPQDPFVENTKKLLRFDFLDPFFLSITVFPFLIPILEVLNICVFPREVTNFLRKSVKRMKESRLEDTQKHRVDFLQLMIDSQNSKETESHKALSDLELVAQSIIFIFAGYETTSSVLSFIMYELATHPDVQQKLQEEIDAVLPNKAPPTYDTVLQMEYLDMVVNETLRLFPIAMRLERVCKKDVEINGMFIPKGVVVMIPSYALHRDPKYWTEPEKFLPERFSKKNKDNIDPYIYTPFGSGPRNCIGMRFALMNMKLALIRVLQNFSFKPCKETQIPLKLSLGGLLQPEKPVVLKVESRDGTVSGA
Protocol: For detailed comparisons between recombinant CYP1A2 and CYP3A4 (Fig. 2B, C), Supersomes were used (CYP1A2, catalogue number 456203, CYP3A4, catalogue number 456202). […] The concentration of savolitinib metabolites M2 and M4 formed were determined from standard curves obtained by spiking the appropriate concentrations of M2 and M4 into recombinant enzymes (in the absence of NADPH) and processing in the same way as the samples.

[4] = healthy volunteers; cited from earlier work
[5] = CLint in NADH-supplemented human liver microsomes; details: human, pH 7.4
Protocol: as §1

[6] = molecular target: recombinant human CYP2C19 (Homo sapiens, UniProt P33261); experiment: Recombinant CYP panel, savolitinib CLint; format: in vitro ADME; details: CYP2C19, inter-system extrapolation factors
Chain of recombinant human CYP2C19 (P33261 whole entry): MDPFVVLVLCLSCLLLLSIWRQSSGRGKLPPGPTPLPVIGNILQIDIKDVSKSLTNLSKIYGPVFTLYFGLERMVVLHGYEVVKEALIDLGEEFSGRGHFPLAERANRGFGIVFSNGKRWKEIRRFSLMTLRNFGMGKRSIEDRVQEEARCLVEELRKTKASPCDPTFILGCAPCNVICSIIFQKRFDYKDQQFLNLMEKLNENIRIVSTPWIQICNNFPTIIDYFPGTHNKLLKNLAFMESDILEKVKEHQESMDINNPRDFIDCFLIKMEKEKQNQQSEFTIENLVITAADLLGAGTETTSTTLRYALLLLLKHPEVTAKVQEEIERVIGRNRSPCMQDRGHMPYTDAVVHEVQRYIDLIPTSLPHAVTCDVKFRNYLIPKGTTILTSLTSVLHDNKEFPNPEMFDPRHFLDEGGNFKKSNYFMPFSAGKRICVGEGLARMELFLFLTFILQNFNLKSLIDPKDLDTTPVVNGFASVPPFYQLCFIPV
Protocol: (§2) […]
(§3) The clearance of savolitinib was
(§4) The average intrinsic clearance was
(§5) concentrations (final 0.1 µM).

recombinant human CYP3A5 = recombinant human CYP3A5 (Homo sapiens, UniProt P20815); experiment: Recombinant CYP panel, savolitinib CLint; format: in vitro ADME
Chain of recombinant human CYP3A5 (P20815 whole entry): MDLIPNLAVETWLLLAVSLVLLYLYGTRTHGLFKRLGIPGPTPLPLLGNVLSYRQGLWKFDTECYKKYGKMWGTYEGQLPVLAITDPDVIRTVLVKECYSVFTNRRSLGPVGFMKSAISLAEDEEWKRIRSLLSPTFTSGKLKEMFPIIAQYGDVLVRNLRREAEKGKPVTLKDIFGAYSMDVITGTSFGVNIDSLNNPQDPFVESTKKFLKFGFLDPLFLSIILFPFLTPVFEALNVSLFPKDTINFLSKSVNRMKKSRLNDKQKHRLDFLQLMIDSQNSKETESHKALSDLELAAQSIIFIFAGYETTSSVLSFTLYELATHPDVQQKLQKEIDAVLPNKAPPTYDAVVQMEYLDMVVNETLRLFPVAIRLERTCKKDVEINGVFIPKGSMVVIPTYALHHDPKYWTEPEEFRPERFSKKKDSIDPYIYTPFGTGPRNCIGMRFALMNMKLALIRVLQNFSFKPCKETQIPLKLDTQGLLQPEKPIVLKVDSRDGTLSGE
Protocol: as §2, §3, §4, §5

recombinant human CYP1A2 = molecular target: T2, recombinant human CYP1A2 (Homo sapiens, UniProt P05177); experiment: Recombinant CYP panel, savolitinib CLint; format: in vitro ADME
T2 sequence (P05177 1-516): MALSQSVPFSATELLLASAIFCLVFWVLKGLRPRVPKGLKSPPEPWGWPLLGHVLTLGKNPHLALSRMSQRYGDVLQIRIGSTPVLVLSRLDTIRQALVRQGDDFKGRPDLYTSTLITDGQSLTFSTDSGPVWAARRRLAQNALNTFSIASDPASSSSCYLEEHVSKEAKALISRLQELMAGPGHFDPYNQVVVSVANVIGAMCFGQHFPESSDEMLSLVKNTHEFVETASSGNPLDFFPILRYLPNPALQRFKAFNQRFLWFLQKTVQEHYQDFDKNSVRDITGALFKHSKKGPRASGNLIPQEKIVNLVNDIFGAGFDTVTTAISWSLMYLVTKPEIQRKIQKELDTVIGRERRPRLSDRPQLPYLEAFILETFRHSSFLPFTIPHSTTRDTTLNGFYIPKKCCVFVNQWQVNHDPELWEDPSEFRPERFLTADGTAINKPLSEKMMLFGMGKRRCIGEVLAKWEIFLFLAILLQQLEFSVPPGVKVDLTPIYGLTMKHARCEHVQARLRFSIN
Protocol: as §2, §3, §4, §5

recombinant human CYP3A4 = recombinant human CYP3A4 (Homo sapiens, UniProt P08684); experiment: Recombinant CYP panel, savolitinib CLint; format: in vitro ADME
Chain of recombinant human CYP3A4 (P08684 whole entry): as the sequence (P08684 whole entry) above
Protocol: as §2, §3, §4, §5

recombinant human CYP2A6 = molecular target: T3, recombinant human CYP2A6 (Homo sapiens, UniProt P11509); experiment: Recombinant CYP panel, savolitinib CLint; format: in vitro ADME
T3 sequence (P11509 1-494): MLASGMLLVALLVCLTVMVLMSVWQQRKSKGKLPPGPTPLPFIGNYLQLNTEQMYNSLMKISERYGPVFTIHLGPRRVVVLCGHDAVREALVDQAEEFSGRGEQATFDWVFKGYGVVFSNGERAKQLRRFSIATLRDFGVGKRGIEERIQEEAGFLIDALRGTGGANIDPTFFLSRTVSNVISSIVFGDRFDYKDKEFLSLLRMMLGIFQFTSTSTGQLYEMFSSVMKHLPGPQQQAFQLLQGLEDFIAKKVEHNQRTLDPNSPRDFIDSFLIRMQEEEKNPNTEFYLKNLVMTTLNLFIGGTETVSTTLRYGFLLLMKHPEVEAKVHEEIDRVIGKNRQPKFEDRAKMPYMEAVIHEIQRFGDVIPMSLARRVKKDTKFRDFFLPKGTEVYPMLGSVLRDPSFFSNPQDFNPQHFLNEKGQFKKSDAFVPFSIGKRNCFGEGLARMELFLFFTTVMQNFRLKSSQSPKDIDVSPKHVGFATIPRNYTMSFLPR
Protocol: as §2, §3, §4, §5

recombinant human CYP2D6 = recombinant human CYP2D6 (Homo sapiens, UniProt P10635); experiment: Recombinant CYP panel, savolitinib CLint; format: in vitro ADME
Chain of recombinant human CYP2D6 (P10635 whole entry): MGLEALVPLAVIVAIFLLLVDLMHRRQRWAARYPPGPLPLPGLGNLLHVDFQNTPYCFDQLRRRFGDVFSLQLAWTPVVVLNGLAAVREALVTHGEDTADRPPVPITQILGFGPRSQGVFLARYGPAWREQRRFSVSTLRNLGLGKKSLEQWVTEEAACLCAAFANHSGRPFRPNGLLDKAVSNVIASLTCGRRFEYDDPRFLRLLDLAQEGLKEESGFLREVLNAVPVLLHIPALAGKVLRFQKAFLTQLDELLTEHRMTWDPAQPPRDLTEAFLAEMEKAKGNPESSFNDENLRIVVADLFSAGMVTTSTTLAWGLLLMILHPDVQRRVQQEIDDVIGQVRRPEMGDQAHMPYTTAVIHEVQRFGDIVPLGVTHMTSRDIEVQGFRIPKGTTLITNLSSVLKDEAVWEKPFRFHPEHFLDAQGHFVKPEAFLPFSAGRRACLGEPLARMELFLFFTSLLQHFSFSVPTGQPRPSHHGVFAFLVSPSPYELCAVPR
Protocol: as §2, §3, §4, §5

CYP1A2-Cytb5R = molecular target: T4, CYP1A2-Cytb5R (Homo sapiens, UniProt P05177); experiment: Turnover by non-canonical recombinant CYP1A2-Cytb5R; format: in vitro ADME; details: noncanonical CYP1A2-Cytb5R
T4 construct: purchased BioIVT (custom synthesis) CE00001 (CYP1A2), batch CPD034-1A2-30; host or cells: bactosomes
T4 sequence (P05177 1-516): T2 sequence (P05177 1-516)
Text: As commercial recombinant human CYPs co-express the individual CYP and reductase with an option to include cytochrome b5. A custom synthesis co-expressing CYP3A4 or CYP1A2 and Cytb5R plus cytochrome b5 was, therefore, ordered from BioIVT and the bactosomes were compared with canonical CYP-POR enzymes plus cytochrome b5.

[7] = Intrinsic permeability in Caco-2 cells with efflux inhibited; details: human, Caco-2
[8] = Free fraction in rat hepatocytes as surrogate for HH, equilibrium dialysis; format: in vitro ADME; details: rat hepatocytes (surrogate for human hepatocytes); printed as HH; rat hepatocytes used as surrogate
rat hepatocytes = experiment: as above; format: in vitro ADME; details: fraction unbound, measured or estimated by in silico models of Fuinc
[9] = Free savolitinib in incubation with 150 mg/mL bovine serum albumin; format: in vitro ADME; details: BSA final 150 mg/mL
[10] = cited from earlier work

With `C[C@@H](c1ccc2nccn2c1)n1nnc2ncc(-c3cnn(C)c3)nc21` [Savolitinib] the logD [1] was 1.81, the microsomal CLint at 1 µM ([2]; human liver microsomes + NADPH, pH 7.4) was 9.8 µL/min/mg and the CLint scaled at 1 µM ([2]; human liver microsomes, pH 7.4, NADPH_HLM_scaled_CLint,u, Fig. 4a,d) was 9.9 mL/min/kg. For the same compound, the fu_HLM ([3]; fraction unbound, measured or estimated by in silico models of Fuinc) was 0.935, the fraction unbound at 4 h, 1 µM ([3]; human, human liver microsomes, pH 7.4) was 0.935 and the hepatocyte CLint at 1 µM (in vitro; both) was 1 µL/min/1e6 cells. For the same compound, the CLint scaled at 1 µM (in vitro; HH_scaled_CLint,u) was 2.98 mL/min/kg, the Percentage savolitinib remaining (recombinant CYP3A4-POR) was 1.366% and 5.612% and 4.281% and the “oxidation by aldehyde oxidase, share of the dose” value [4] was 19 % of the dose. For the same compound, the “oxidation/hydrolysis on the imidazopyridine moiety, share of the dose” value [4] was 16 % of the dose, the microsomal CLint at 1 µM ([5]; human liver microsomes + NADH) was 1.6 µL/min/mg and the CLint scaled at 1 µM ([5]; human liver microsomes) was 1.62 mL/min/kg. The “% contribution” value [6] was 1.9%, the “% contribution” value (recombinant human CYP3A5; CYP3A5, inter-system extrapolation factors) was 12% and the CLint (recombinant human CYP3A5; CYP3A5, only two experiments measurable) was 0.0939 µL/min/pmol CYP. For the same compound, the “% contribution” value (recombinant human CYP1A2; CYP1A2, inter-system extrapolation factors) was 1.6%, the CLint (recombinant human CYP1A2; CYP1A2, only two experiments measurable) was 0.0386 µL/min/pmol CYP and the CLint (recombinant human CYP3A4; CYP3A4, average of three) was 0.489 ± 0.0278 µL/min/pmol CYP. For the same compound, the “% contribution” value (recombinant human CYP3A4; CYP3A4, inter-system extrapolation factors) was 83%, the “% contribution” value (recombinant human CYP2A6; CYP2A6, inter-system extrapolation factors) was 0.2% and the CLint (recombinant human CYP2A6; CYP2A6, only one experiment measurable) was 0.0148 µL/min/pmol CYP. The CLint (recombinant human CYP2D6; CYP2D6, average of three) was 0.309 ± 0.0010 µL/min/pmol CYP, the “% contribution” value (recombinant human CYP2D6; CYP2D6, inter-system extrapolation factors) was 1.8% and the “turnover (metabolite formation or disappearance of parent)” value (CYP1A2-Cytb5R) was “no detectable turnover”. It also gave a Papp at 2 h, 10 µM [7] of 53.7 ×10⁻⁶ cm/s, a fraction unbound at 4 h, 1 µM [8] of 0.847 and a fu_ratHH (rat hepatocytes) of 0.847. The free savolitinib [9] was 17% and the “free in normal plasma” value [10] was 29%.
